Earlier results in patent US20130115264A1, “IMPLANTABLE RASAGILINE COMPOSITIONS AND METHODS OF TREATMENT THEREOF” (Endo Pharmaceuticals Solutions Inc., priority 2011, published 2013).
Where a name gives a salt, the structure may show the parent alone.

Assays:
[1] = in vivo
[2] = tested on: MAO-B; conditions: ex vivo, brain, liver and intestinal tissues
[3] = oral dosage form

| SMILES | half-life [1] | MAO-B inhibition [2] | oral bioavailability [3] [%] |
| --- | --- | --- | --- |
| C#CCN[C@@H]1CCc2ccccc21 [rasagiline, R-(+)-N-propargyl-1-aminoindan] | about 3 hours | potent, irreversible MAO-B selective inhibitor | – |
| C#CCN[C@@H]1CCc2ccccc21 [rasagiline mesylate] | – | – | ~35 |
